# Data taken from PMC6843786, “Temporin-SHa and Its Analogs as Potential Candidates for the Treatment of Helicobacter pylori” (Biomolecules, 2019).
# How the values were obtained:
# human gastric explants [1] = assay: Ex vivo toxicity assay, LDH release from human gastric explants; type: cell-based; conditions: peptides 100 µM, CTAB 300 µM, % of total release
# Description: To further evaluate the innocuity of the peptides, ex vivo experiments were performed using human explants as previously described. Briefly, human gastric tissue samples were obtained from patients undergoing surgery at the Hospital Laveran (Marseille, France), unit of gastrointestinal surgery according to a collaborative clinical transfer project. The procedures were approved by the French ethic committee (CODECOH n° DC-2019-3402). All patients agreed for the use of their tissues for research purposes. Samples were taken from healthy patients during sleeve gastrectomy from macroscopically unaffected area as identified by the surgeons. After resection, the specimens were placed in ice-cold oxygenated sterile DMEM solution containing 1% streptomycin/penicillin solution and 50 μg/mL gentamycin and were directly transferred to the laboratory within 15 min on ice. Gastric tissues were extensively washed and maintained in ice-cold culture media containing 1% streptomycin/penicillin solution and 50 μg/mL gentamycin. Tissues were cleaned from vascular vessels and conjunctive tissue using forceps under binocular microscope. Gastric explants (wet weight of 20–30 mg) were then isolated from the cleaned resections using surgical punch (diameter of 0.5 cm^2). […] Finally, the explants were washed three times with culture media without antibiotics and transferred into 24-well plates before being incubated in RPMI media without fetal bovine serum, antibiotics and phenol red at 37 °C in the 5% CO2 incubator with 100 µM of peptides for 2, 4 or 8 h. Phenol red was omitted from the culture media since it interferes with the lactate dehydrogenase (LDH) assay. The detergent cetyl-trimethylammonium bromide (CTAB) at 300 µM was used as positive control of tissue damages. At the end of the incubation, the explants were collected and washed three times with PBS^++ and were fixed overnight at 4 °C with PFA diluted at 4% in PBS. After that, gastric explants were washed twice with PBS and were included in an inclusion medium (TFM-EMS), in transverse position to allow cutting in the crypt-villosity axis using cryostat (Leica CM3050) (Leica Microsystems, Nanterre, France). Four sections of 5 µm thickness were obtained per explant, each section being separated by 100 µm from the next in order to cover all the tissue. Explants were then stained using hematoxylin and eosin (H&E) staining protocol. Briefly, samples were incubated for 8 min in hematoxylin (Sigma-Aldrich) and then allowed to stain by incubation with water for 2 min. Then explants were incubated for 1 min in eosin (Sigma-Aldrich) and then in water for 1 min. This was followed by incubation of explants with ethanol at concentration of 70% then 95% and finally 100% for 2 min each. After blotting excess ethanol, gastric explants were incubated for 15 min with xylene and mounted with coverslip using Eukitt mounting media (EMS, Hatfield, PA, USA). Finally, explants were left overnight to dry before examination of tissue organization under the microscope (Leitz DMRB microscope (Leïca), equipped with Leïca DFC 450C camera). Quantification of the release of LDH was also used in addition to microscopic observations to evaluate the impact of peptides on human gastric explants. Briefly, after 2, 4 or 8 h of incubation of the explants with the peptides, the supernatants of the wells were collected and stored at -80 °C before the LDH assay. The LDH activity was measured using previously described protocol with minor changes. Briefly, 50 µL of supernatants obtained from explants were mixed with 200 µL of Tris-Lactate buffer (containing Tris HCl at 86 mM, L-Lactate at 56 mM and KCl at 172 mM, pH 9.3, all from Sigma-Aldrich) and 20 µL of NAD (at 172 mM, Sigma-Aldrich) into well of 96-wells plates. Increase in OD339nm was then measured at 30 °C after 0, 1, 5, and 10 min using microplate reader (Synergy Mx, Biotek). […]
# human gastric explants [2] = assay: Ex vivo toxicity assay, histological examination (H&E) of human gastric explants; type: cell-based; conditions: 2, 4 or 8 h; peptides 100 µM, CTAB 300 µM; H&E staining
# Description: To further evaluate the innocuity of the peptides, ex vivo experiments were performed using human explants as previously described. Briefly, human gastric tissue samples were obtained from patients undergoing surgery at the Hospital Laveran (Marseille, France), unit of gastrointestinal surgery according to a collaborative clinical transfer project. The procedures were approved by the French ethic committee (CODECOH n° DC-2019-3402). All patients agreed for the use of their tissues for research purposes. Samples were taken from healthy patients during sleeve gastrectomy from macroscopically unaffected area as identified by the surgeons. After resection, the specimens were placed in ice-cold oxygenated sterile DMEM solution containing 1% streptomycin/penicillin solution and 50 μg/mL gentamycin and were directly transferred to the laboratory within 15 min on ice. Gastric tissues were extensively washed and maintained in ice-cold culture media containing 1% streptomycin/penicillin solution and 50 μg/mL gentamycin. […] Quantification of the release of LDH was also used in addition to microscopic observations to evaluate the impact of peptides on human gastric explants. […] The LDH activity was measured using previously described protocol with minor changes. […] Increase in OD339nm was then measured at 30 °C after 0, 1, 5, and 10 min using microplate reader (Synergy Mx, Biotek). […]
compound,measurement,setting,value
"CCCCCCCCCCCCCCCC[N+](C)(C)C [CTAB, cetyl-trimethylammonium bromide, reference compound]",LDH release,human gastric explants [1]; 2 h,81.1%
same,LDH release,human gastric explants [1]; 4 h,90.3%
same,LDH release,human gastric explants [1]; 8 h,100%
same,tissue organization by microscopic observation,human gastric explants [2],major alterations of the tissue architecture
